Measured values from patent publication US5006515A, “Pharmaceuticals, phosphorus-containing 2-isoxazolines and isoxazoles contained therein” (Hoechst Aktiengesellschaft, priority 1987, dated 1991).

Assays:
active Arthus reaction = assay: Active Arthus reaction in the rat; type: in vivo, Sprague-Dawley rats; conditions: Rattus norvegicus, po, 4 h, oral dose 35 mg/kg, 4 h after ovalbumin challenge; read-out: Active Arthus reaction % change
Method: The experimental animals used were female and male Sprague-Dawley rats with a body weight between 80 and 100 g which received subcutaneous injections into the tail-head of 0.5 ml of an emulsion of pertussis vaccine and ovalbumin in liquid paraffin. After two weeks, the rats were divided into groups each of 8 animals. 24 hours and 1 hour before induction of the Arthus reaction by injection of 0.1 ml of a 0.4% strength ovalbumin solution into the right hind paw, the particular test substance or the pure vehicle (positive control) was administered orally, sodium chloride solution was injected into the left paw. One group of unsensitized animals (negative control group) was likewise treated with ovalbumin in order to be able to rule out nonspecific reactions to the protein. The parameter used for measuring the action of the product was the percentage change in the increase in paw volume compared with that in the control group which was sensitized but untreated (positive control) 4 hours after ovalbumin challenge, when the swelling had reached its maximum.

Acute toxicity = assay: Acute toxicity; set-up: species or system mice; conditions: mouse, in vivo, iv, single dose, mortality within 7 days
Method: The LD50 values were determined by the standard method via the mortality occurring within 7 days in NMRI (Naval Medical Research Institute) mice (6 animals per dose) after a single intraperitoneal (i.p.) or intravenous (i.v.) dose.

aminopeptidase B = aminopeptidase B (Homo sapiens, UniProt Q9H4A4); assay: Inhibition of aminopeptidase B; type: biochemical; conditions: substrate L-lysine 2-naphthylamide, room temperature; read-out: Aminopeptidase B IC50 (converted)
Method: The activity of the enzyme aminopeptidase B was determined photometrically using the substrate L-lysine 2-naphthylamide at room temperature. […] In the same way, the inhibition of leucine aminopeptidase was investigated using L-leucine 4-nitroanilide as enzyme substrate. The IC50 values are compiled in Table 6.

[1] = test system: DTH reaction to sheep erythrocytes; assay: Delayed-type hypersensitivity (DTH) reaction to sheep erythrocytes; type: in vivo, female NMRI mice
Method: Groups each comprising 5 female NMRI mice with a body weight of 18 to 20 g were formed, and each animal was given 10^6 or 10^9 sheep red blood cells intravenously. Sheep erythrocytes are regarded in immunology as a standard antigen with which it is possible to check cellular and humoral immunoreactivity, especially the functioning of the T-cell-dependent component of the immune system, the so-called T-helper cells. The test substances were administered, in intraperitoneal doses of 5 to 100 mg/kg in physiological saline, at the same time as the antigen. After 5 days, each animal was given an injection of 2×10^8 sheep erythrocytes into the footpad. 24 hours later, the swelling of the foot was measured. The foot swelling is induced by a skin reaction of the delayed type (DTH reaction) and, as is known to those skilled in the art, is a measure of the cellular immune response (J. Immunol. 101 (1968), 830-845). The test results obtained with the product of Example 34, by way of example, are compiled in Table 7 and illustrate that the compounds of the formula I--administered prophylactically--are able to increase the cellular immune response after immunization with the antigen by stimulation of the T-cell system, with the stimulant action reaching its optimum in this experiment at a dose of 25 mg/kg.

Listeria monocytogenes = assay: Mortality and organ colonization in mice infected with Listeria monocytogenes; type: in vivo, female NMRI mice; conditions: 4 × 10 mg/kg i.p.
Text: Female NMRI mice (10 animals/group) were infected with a low dose of Listeria monocytogenes (2×10^2).

B16 melanoma = assay: Stimulation of defenses against B16 melanoma in the mouse; type: in vivo, female C57B1/6 mice; conditions: intervals of 2 days, day 4 to day 100
Text: A primary tumor was generated with 2×10^5 live B16 melanoma cells in female C57B1/6 mice with a body weight of 18 to 20 g and, after having grown to a diameter of 0.65 cm, was removed surgically. The animals subsequently died of metastases in the lung. The investigation now was of whether the mean survival time after removal of the primary tumor, that is to say the time at which 50% of the animals are still alive, can prolonged by intraperitoneal treatment with the compounds of the formula I. For this purpose, after amputation of the primary tumor, the mice were divided into groups each containing 10 animals and were treated with i.p. doses each of 1.25 or 2.5 mg/kg test substance at intervals of 2 days from day 4 to day 100. The animals in the control group received merely the pure vehicle PBS (physiological saline) in the same therapeutic regimen.

peritoneal macrophages = assay: Stimulation of the release of lysosomal enzymes from peritoneal macrophages (exocytosis); conditions: for Enzyme activity N-Ac-Glu / Enzyme activity β-Gal / Enzyme activity β-Glu: single dose

aminopeptidase B, sequence (Q9H4A4 whole entry, species assumed): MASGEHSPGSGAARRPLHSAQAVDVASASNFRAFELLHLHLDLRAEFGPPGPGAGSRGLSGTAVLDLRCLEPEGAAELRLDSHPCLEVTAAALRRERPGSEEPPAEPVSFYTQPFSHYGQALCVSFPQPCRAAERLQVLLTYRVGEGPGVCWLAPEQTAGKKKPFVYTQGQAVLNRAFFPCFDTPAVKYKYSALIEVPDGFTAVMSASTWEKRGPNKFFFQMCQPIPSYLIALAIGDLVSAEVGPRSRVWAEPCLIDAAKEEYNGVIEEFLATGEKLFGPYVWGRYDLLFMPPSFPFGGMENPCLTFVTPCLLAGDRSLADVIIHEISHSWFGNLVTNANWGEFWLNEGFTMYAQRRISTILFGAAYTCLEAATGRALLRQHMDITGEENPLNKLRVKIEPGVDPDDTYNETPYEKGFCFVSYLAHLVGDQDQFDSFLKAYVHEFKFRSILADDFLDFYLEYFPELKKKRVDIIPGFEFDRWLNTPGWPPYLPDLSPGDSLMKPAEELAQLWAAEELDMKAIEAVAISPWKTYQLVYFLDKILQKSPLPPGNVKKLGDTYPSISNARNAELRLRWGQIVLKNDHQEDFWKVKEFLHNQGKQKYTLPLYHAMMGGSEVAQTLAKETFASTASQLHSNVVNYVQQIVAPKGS

SMILES: O=P(O)(O)C1CC(c2ccccc2)=NO1 (racemic) [Example 34, 3-Phenyl-2-isoxazolin-5-ylphosphonic acid]
- change in vivo at 35 mg/kg (active Arthus reaction): -16%
- LD50 at 168 h (Acute toxicity): 200 to 300 mg/kg
- IC50 (aminopeptidase B): 99.1 µM
- % Foot swelling after immunization ([1]; 10^6 erythrocytes, 5.0 mg/kg 1x i.p.): 25.3 ± 5.8%
- % Foot swelling after immunization ([1]; 10^6 erythrocytes, 10.0 mg/kg 1x i.p.): 28.9 ± 7.7%
- % Foot swelling after immunization ([1]; 10^6 erythrocytes, 12.5 mg/kg 1x i.p.): 29.9 ± 3.5%
- % Foot swelling after immunization ([1]; 10^6 erythrocytes, 20.0 mg/kg 1x i.p.): 32.5 ± 3.0%
- % Foot swelling after immunization ([1]; 10^6 erythrocytes, 25.0 mg/kg 1x i.p.): 33.7 ± 6.6%
- % Foot swelling after immunization ([1]; 10^6 erythrocytes, 40.0 mg/kg 1x i.p.): 29.7 ± 4.7%
- % Foot swelling after immunization ([1]; 10^6 erythrocytes, 50.0 mg/kg 1x i.p.): 29.2 ± 6.9%
- % Foot swelling after immunization ([1]; 10^6 erythrocytes, 100.0 mg/kg 1x i.p.): 27.3 ± 4.6%
- % Foot swelling after immunization ([1]; 10^9 erythrocytes, 5.0 mg/kg 1x i.p.): 22.8 ± 3.5%
- % Foot swelling after immunization ([1]; 10^9 erythrocytes, 10.0 mg/kg 1x i.p.): 24.1 ± 5.7%
- % Foot swelling after immunization ([1]; 10^9 erythrocytes, 12.5 mg/kg 1x i.p.): 26.1 ± 8.9%
- % Foot swelling after immunization ([1]; 10^9 erythrocytes, 20.0 mg/kg 1x i.p.): 30.5 ± 6.5%
- % Foot swelling after immunization ([1]; 10^9 erythrocytes, 25.0 mg/kg 1x i.p.): 34.1 ± 7.4%
- % Foot swelling after immunization ([1]; 10^9 erythrocytes, 40.0 mg/kg 1x i.p.): 32.8 ± 5.6%
- % Foot swelling after immunization ([1]; 10^9 erythrocytes, 50.0 mg/kg 1x i.p.): 28.1 ± 4.1%
- % Foot swelling after immunization ([1]; 10^9 erythrocytes, 100.0 mg/kg 1x i.p.): 26.6 ± 5.0%
- dose at which the stimulant action (DTH reaction) reaches its optimum ([1]; i.p.): 25 mg/kg
- Relative stimulation of the DTH reaction ([1]; single i.p. dose of 40 mg/kg, maximal stimulation by Example 34 = 100%): 100%
- survival of the second infection (Listeria monocytogenes): survived the second infection
- % of surviving animals with organisms in the liver (Listeria monocytogenes; 5 days after second infection): 20%
- Mortality after secondary infection (Listeria monocytogenes; second infection 10^6 organisms): 0/10
- % survival after 100 days (B16 melanoma; 1.25 mg/kg i.p.): 20%
- Mean survival time (B16 melanoma; 1.25 mg/kg i.p.): 41 days
- % survival after 100 days (B16 melanoma; 2.50 mg/kg i.p.): 30%
- Mean survival time (B16 melanoma; 2.50 mg/kg i.p.): 43 days
- Enzyme activity N-Ac-Glu (peritoneal macrophages; 5 mg/kg i.p.): 2607 mU/ml
- Enzyme activity β-Gal (peritoneal macrophages; 5 mg/kg i.p.): 2357 mU/ml
- Enzyme activity β-Glu (peritoneal macrophages; 5 mg/kg i.p.): 1197 mU/ml
- Enzyme activity N-Ac-Glu (peritoneal macrophages; 5 mg/kg p.o.): 2071 mU/ml
- Enzyme activity β-Gal (peritoneal macrophages; 5 mg/kg p.o.): 2216 mU/ml
- Enzyme activity β-Glu (peritoneal macrophages; 5 mg/kg p.o.): 973 mU/ml
- Enzyme activity N-Ac-Glu (peritoneal macrophages; 10 mg/kg i.p.): 4822 mU/ml
- Enzyme activity β-Gal (peritoneal macrophages; 10 mg/kg i.p.): 3956 mU/ml
- Enzyme activity β-Glu (peritoneal macrophages; 10 mg/kg i.p.): 1542 mU/ml
- Enzyme activity N-Ac-Glu (peritoneal macrophages; 10 mg/kg p.o.): 4283 mU/ml
- Enzyme activity β-Gal (peritoneal macrophages; 10 mg/kg p.o.): 3513 mU/ml
- Enzyme activity β-Glu (peritoneal macrophages; 10 mg/kg p.o.): 1393 mU/ml
- Enzyme activity N-Ac-Glu (peritoneal macrophages; 20 mg/kg i.p.): 6812 mU/ml
- Enzyme activity β-Gal (peritoneal macrophages; 20 mg/kg i.p.): 6918 mU/ml
- Enzyme activity β-Glu (peritoneal macrophages; 20 mg/kg i.p.): 2067 mU/ml
- Enzyme activity N-Ac-Glu (peritoneal macrophages; 20 mg/kg p.o.): 6128 mU/ml
- Enzyme activity β-Gal (peritoneal macrophages; 20 mg/kg p.o.): 6011 mU/ml
- Enzyme activity β-Glu (peritoneal macrophages; 20 mg/kg p.o.): 1979 mU/ml
- Enzyme activity N-Ac-Glu (peritoneal macrophages; 40 mg/kg i.p.): 9281 mU/ml
- Enzyme activity β-Gal (peritoneal macrophages; 40 mg/kg i.p.): 9318 mU/ml
- Enzyme activity β-Glu (peritoneal macrophages; 40 mg/kg i.p.): 2547 mU/ml
- Enzyme activity N-Ac-Glu (peritoneal macrophages; 40 mg/kg p.o.): 8432 mU/ml
- Enzyme activity β-Gal (peritoneal macrophages; 40 mg/kg p.o.): 9262 mU/ml
- Enzyme activity β-Glu (peritoneal macrophages; 40 mg/kg p.o.): 2286 mU/ml
- release of acid hydrolases, in words (peritoneal macrophages; i.p. or oral): increased as a function of the dose
